The values that follow come from publication PMC6136348, “In the quest for new targets for pathogen eradication: the adenylosuccinate synthetase from the bacterium Helicobacter pylori” (Journal of Enzyme Inhibition and Medicinal Chemistry, 2018).

The target of assay [1] is T1, adenylosuccinate synthetase (AdSS) (Helicobacter pylori, UniProt P56137).
T1 construct: gene purA; recombinant protein expressed from pET21b-HPpurA
T1 sequence (P56137 1-411): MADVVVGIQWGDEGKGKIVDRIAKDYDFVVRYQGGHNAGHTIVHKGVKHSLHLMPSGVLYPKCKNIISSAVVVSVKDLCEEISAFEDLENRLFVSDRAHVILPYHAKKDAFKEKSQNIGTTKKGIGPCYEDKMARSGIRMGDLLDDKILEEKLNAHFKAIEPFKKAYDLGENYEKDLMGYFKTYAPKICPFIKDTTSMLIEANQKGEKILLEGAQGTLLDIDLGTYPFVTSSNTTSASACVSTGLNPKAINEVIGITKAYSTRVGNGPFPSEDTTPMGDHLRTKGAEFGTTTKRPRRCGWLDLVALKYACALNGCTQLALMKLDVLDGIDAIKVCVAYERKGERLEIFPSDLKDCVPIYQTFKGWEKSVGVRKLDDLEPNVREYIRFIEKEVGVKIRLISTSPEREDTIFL
Kind of assay: spectrophotometric enzyme assay at […] nm, competitive inhibition fit and Dixon plot (reaction product tested as inhibitor). The class given is biochemical.

Assay [2] concerns the target T1, adenylosuccinate synthetase (AdSS). Kind of assay: spectrophotometric enzyme assay at […] nm, competitive inhibition fit and Dixon plot. The class given is biochemical.

Take `O=C(O)C[C@H](Nc1ncnc2c1ncn2[C@@H]1O[C@H](COP(=O)(O)O)[C@@H](O)[C@H]1O)C(=O)O` [adenylosuccinate]: affinity in assay [1] was put at a Ki of 3500 ± 300 nM.
In turn, `O=CN(O)CC(=O)O` [hadacidin] showed a Ki in assay [2] of 190 ± 20 nM.

A word on the Ki: it is the equilibrium dissociation constant of an inhibitor or competing ligand from its target.
